Patent publication US20230392126A1, “TISSUE ORGANOIDS” (priority 2016, published 2023)

Experiments:
[1] = Intraperitoneal glucose tolerance test (IPGTT) in grafted mice fed HFD; type: in vivo, mouse
Experimental: For glucose tolerance testing, an intraperitoneal glucose tolerance test (IPGTT) was performed on mice fed an HFD for 10 weeks. Mice were fasted for 6 h before the test. Animals were injected (1 g/kg glucose/body weight, i.p.) with glucose dissolved in saline, and blood glucose was measured at 0, 10, 20, 30, 60 and 90 minutes using glucose test strips and glucose meters.
IPGTT was performed to examine glucose homeostasis.
For glucose and insulin tolerance tests, an intraperitoneal glucose tolerance test (IPGTT) was performed on mice fed an HFD for 10 weeks. Mice were fasted for 6 h before the test. Animals were injected (1 g/kg glucose/body weight, i.p.) with glucose dissolved in saline, and blood glucose was measured at 0, 30, 60 and 90 min using glucose test strips and glucose meters. An intraperitoneal insulin tolerance test was carried out 1 week after IPGTT. Mice were fasted for 4 h and injected (2 U/kg, i.p.) with insulin purchased from Sigma (St. Louis, MO). Blood glucose levels were determined thereafter at 0, 30, 60 and 90 min.
To examine glucose homeostasis, IPGTT (intraperitoneal glucose tolerance test) and ITT (insulin tolerance test) were performed.

[2] = GLP1 level in blood by ELISA, CD1 mice grafted with mouse skin organoids; type: in vivo
Experimental: To investigate the potential therapeutic effect of GLP1 in vivo, skin organoid cultures with epidermal keratinocytes targeted with a GLP1-expression vector or a control vector, and transplant the organoids to CD1 host animals (FIGS. 11A and 11B-C) were prepared. […] Expression of GLP1 in grafted animals was stable for more than 3 months (FIG. 11K).

[3] = test system: insulinoma cells; assay: Insulin secretion of starved insulinoma cells treated with conditioned medium (ELISA); type: cell-based
[4] = test system: human epidermal cells; assay: Secretion of GLP1 in culture medium by ELISA (human epidermal cells); type: cell-based; conditions: engineered human epidermal cells, doxycycline
Text: To examine CRISPR-mediated genome editing in human epidermal cells, vectors encoding two gRNAs targeting human AAVS1 (adeno-associated virus integration site 1) locus, and an AAVS1-targeting vector (FIG. 16A) that harbors a tetracycline-inducible expression cassette encoding the GLP-1 and IgG-Fc fragment fusion protein were used. […] Clones were isolated and correct integration confirmed by southern blotting analysis (FIG. 13D).

[5] = test system: epidermal stem cells; assay: Anchorage-independent growth in soft agar; conditions: SCC cancer initiating cells as positive control
[6] = Obesity induced by high fat diet in grafted mice; type: in vivo, mouse
Text: Male CD-1 mice with skin transplants were housed (5 per cage, ˜8 weeks old) in a central-controlled animal facility for air, humidity and temperature. These mice were fed either a regular chow or an HFD (60% kcal from fats, 20% from carbohydrates, and 20% from proteins) purchased from Bio-Serv (Frenchtown, NJ). Body weight and food intake were measure biweekly.
To examine the potential applicability in diet-induced obesity and diabetes, GLP1/GGBP-expressing cells and control cells (GGBP alone) were transplanted into two cohorts of CD1 adult male mice. The mice were fed a high fat diet (HFD) to induce obesity in grafted animals. Compared with animals on a regular chow diet, the HFD greatly accelerated body weight gain in mice grafted with control cells.
Male CD-1 mice were housed (5 per cage, ˜8 weeks old) in a central-controlled animal facility for air, humidity, and temperature. These mice were fed either a regular chow or an HFD (60% kcal from fats, 20% from carbohydrates, and 20% from proteins) purchased from Bio-Serv (Frenchtown, NJ). Body weight and food intake were measure biweekly.
To examine the potential effect in diet-induced obesity and diabetes, GLP1-expressing cells and control cells were grafted onto two cohorts of CD1 adult mice, and a high fat diet (HFD) was used to induce obesity in the grafted animals. Doxycycline was applied to half of the animals to induce expression of GLP1. To minimize gender difference, only male animals were used. Compared with animals on regular chow diet, HFD greatly accelerated body weight gain in mice grafted with control cells or GLP1 cells without doxycycline treatment.

## GLP1
[1]; GLP1/GGBP grafts, blood glucose and GGBP imaging
  glycemic excursion: significantly reduced glycemic excursion
[1]; HFD, doxycycline-induced GLP1
  glycemic excursion: significantly reduced glycemic excursion
[2]; food containing doxycycline
  level of GLP1 in the blood: significantly enhanced level of GLP1 in the blood
[2]; mouse, in vivo
  duration of stable GLP1 expression in grafted animals: more than 3 months
[3]; conditioned medium from mouse epidermal cells
  insulin secretion induced by conditioned medium: significantly induce secretion of insulin
[3]; from human epidermal cells
  insulin secretion induced by secreted GLP1 fusion protein: induced insulin secretion in vitro
[4]
  GLP1 production: strong GLP1 production upon dose-dependent stimulation with doxycycline
[5]
  anchorage-independent growth (tumorigenicity): cannot grow in suspension
[6]; HFD, GLP1/GGBP-expressing grafts vs GGBP alone, CD1 male mice
  body weight increase: significant inhibition in body weight increase
[6]; HFD, doxycycline-induced GLP1 expression, CD1 male mice
  body weight: significant decrease in body weight
[6]; doxycycline-induced GLP1 expression
  HFD-induced adipocyte hypertrophy in white fat tissue: dramatically suppressed this effect
